{"source": "paper PMC12260505", "about": "“First-in-Human Phase I/IIa Study of the First-in-Class CDK2/4/6 Inhibitor PF-06873600 Alone or with Endocrine Therapy in Patients with Breast Cancer” (Clinical Cancer Research, 2025)", "key": {"CDK9": {"target": "CDK9", "set-up": "method as in PMID 34110834", "conditions": "cited from earlier work"}, "CDK1": {"target": "CDK1", "set-up": "method as in PMID 34110834", "conditions": "cited from earlier work"}, "CDK4": {"target": "CDK4", "set-up": "method as in PMID 34110834", "conditions": "cited from earlier work"}, "Ki67": {"test_system": "Ki67", "experiment": "IHC of Ki67 in paired tumor biopsies", "type": "in vivo, human", "procedure": "(§1) The pharmacodynamic effects of PF-06873600 were assessed by IHC staining of pRb and Ki67 in tumor biopsy samples collected at screening and day 1 of cycle 2 (4 hours after dose). Immunostaining was performed on […] formalin-fixed, paraffin-embedded tissue sections using rabbit monoclonal anti-Rb (Ser807/811) antibody (clone D20B12, Cell Signaling Technology) and rabbit monoclonal anti-Ki67 antibody (Ventana Medical Systems), respectively. pRb and Ki67 expressions were assessed semiquantitatively by a board-certified pathologist. Scoring was performed using the percentage of cells positive for Ki67 or a histo-score (H-score) methodology for pRb based on staining intensity and the percentage of positive cells. Intensity was scored as 0, none; 1, weak; 2, moderate; or 3, strong, and H-scores were calculated as follows: H-score = [fraction of cells with intensity grade 1 (%)] + [fraction of cells with intensity grade 2 (%) × 2] + [fraction of cells with intensity grade 3 (%) × 3]."}, "phosphorylated Rb (pRb)": {"test_system": "phosphorylated Rb (pRb)", "experiment": "IHC of pRb (H-score) in paired tumor biopsies", "type": "in vivo, human", "procedure": "as §1"}, "[1]": {"experiment": "Dose-limiting toxicities in dose escalation (modified toxicity probability interval method)", "type": "in vivo, human", "procedure": "Part 1 included adult patients with HR^+/HER2^− advanced breast cancer or mBC (third- or fourth-line setting), locally recurrent/advanced or metastatic TNBC, or advanced platinum-resistant epithelial ovarian cancer/fallopian tube cancer/primary peritoneal cancer who received oral PF-06873600 at doses of 1 to 50 mg twice daily or oral PF-06873600 plus ET (letrozole or fulvestrant). Primary endpoints for part 1 dose escalation determined safety and tolerability to define dose-limiting toxicities (DLT), estimate the maximum tolerated dose, and select the recommended dose for expansion (RDE). Safety endpoints included adverse events (AE) characterized by type, frequency, severity [as graded by NCI Common Terminology Criteria for Adverse Events (CTCAE) version 4.03], timing, seriousness, and relationship to study therapy. Laboratory abnormalities were characterized by type, frequency, severity (as graded by NCI CTCAE version 4.03), timing, vital sign abnormalities, and heart rate–corrected QT interval (e.g., QTcF). Secondary endpoints included PK, preliminary antitumor activity as assessed using RECIST version 1.1, time-to-event endpoints including objective response rate (ORR), duration of response (DoR), progression-free survival (PFS), time to progression (TTP), and modulation of tumor CDK biomarkers [phosphorylated Rb (pRb), Ki67]. Exploratory endpoints included molecular profiling of tumor and ctDNA and the relationship to clinical outcome.\nIn part 1A, dose escalation monotherapy, patients received escalating doses of a single-agent immediate release (IR) formulation of PF-06873600, 1 to 50 mg twice daily orally on a continuous basis, with dose escalation following the modified toxicity probability interval method. Seven dose levels were evaluated: 1, 2, 5, 10, 25, 35, and 50 mg. An alternative intermittent dosing regimen (5 days on/2 days off) was also explored at 35 mg twice daily. Part 1B combination dose-finding involved PF-06873600 IR 25 mg twice daily with ET (letrozole or fulvestrant, each administered per standard of care). Letrozole was administered orally once daily together with PF-06873600. No dose adjustment for letrozole was permitted, but dosing interruptions were allowed. Fulvestrant 500 mg was administered intramuscularly on cycle 1 day 1 and day 15, cycle 2 day 1, and then monthly thereafter (±3 days) to accommodate dosing on day 1 of each cycle. No dose adjustment for fulvestrant was permitted. Part 1C evaluated two modified release (MR) formulations of PF-06873600: one in the single-dose setting and the other in the twice-daily setting. A cycle was defined as 28 days, regardless of missed doses or dose delays.\nDLT was the primary endpoint of the study, summarized by dose level using the per-protocol analysis set for patients in the dose escalation portion of the study. Efficacy analysis was summarized by dose cohorts for part 2 of the study. For part 1, no formal efficacy analysis was presented. For part 2, tumor response was presented in the form of patient data listings that included, but were not limited to, tumor type, starting dose, tumor response at each visit, and best overall response. In addition, progression date, death date, date of first response, last tumor assessment date, and date of last contact were listed. ORR, PFS, overall survival, TTP, and DoR were summarized and presented as data permitted. For response-based metrics (best overall response, ORR, and DoR), analyses were presented on the basis of confirmed responses. Analyses of PFS and TTP were defined as the time from the date of the first dose. Summaries of the number and percentage of patients with PFS and TTP and data listings by tumor type and dose were generated based on data availability. The 95% confidence intervals (CI) for medians and quartiles were generated based on the Brookmeyer–Crowley method, whereas CIs for the estimated probability of an event at a particular time point were generated using the Greenwood formula. […]"}, "[2]": {"conditions": "IR 25 mg twice daily monotherapy, cycle 2 day 1, HR+/HER2− mBC tumor biopsies"}, "[3]": {"conditions": "IR 25 mg twice daily/fulvestrant combination, cycle 2 day 1"}, "[4]": {"conditions": "part 1A 35 mg twice daily, N = 2, DLT-evaluable set"}, "[5]": {"conditions": "part 1A 50 mg twice daily, N = 8, DLT-evaluable set"}}, "note": "pKi: −log10 of the molar value."}
{"compound": "C[C@@]1(O)CCC[C@H]1n1c(=O)c(C(F)F)cc2cnc(NC3CCN(S(C)(=O)=O)CC3)nc21", "note": "[PF-06873600]", "values": [{"measurement": "pKi", "setting": "CDK9", "result": 7.71}, {"measurement": "pKi", "setting": "CDK1", "result": 8.35}, {"measurement": "pKi", "setting": "CDK4", "result": 8.90}, {"measurement": "Median percentage change in Ki67-positive cells from baseline", "setting": "Ki67; [2]", "result": "–11.7%"}, {"measurement": "Median percentage change in Ki67-positive cells from baseline", "setting": "Ki67; [3]", "result": "–35.9%"}, {"measurement": "Median change in pRb H-score from baseline", "setting": "phosphorylated Rb (pRb); [2]", "result": "–16.5%"}, {"measurement": "Median percentage change in pRb H-score from baseline", "setting": "phosphorylated Rb (pRb); [3]", "result": "–31.9%"}, {"measurement": "DLTs at the monotherapy RDE", "setting": "[1]; 25 mg twice daily, single-agent or combination groups", "result": "No DLTs"}, {"measurement": "DLT, Cardiac arrest", "setting": "[1]; [4]", "result": "0 n (%)"}, {"measurement": "DLT, Colitis", "setting": "[1]; [4]", "result": "0 n (%)"}, {"measurement": "DLT, Fatigue", "setting": "[1]; [4]", "result": "0 n (%)"}, {"measurement": "DLT, Febrile neutropenia", "setting": "[1]; [4]", "result": "0 n (%)"}, {"measurement": "DLT, Multiple organ dysfunction syndrome", "setting": "[1]; [4]", "result": "0 n (%)"}, {"measurement": "DLT, Neutrophil count decreased", "setting": "[1]; [4]", "result": "2 (100.0) n (%)"}, {"measurement": "DLT, Platelet count decreased", "setting": "[1]; [4]", "result": "1 (50.0) n (%)"}, {"measurement": "DLT, Thrombocytopenia", "setting": "[1]; [4]", "result": "0 n (%)"}, {"measurement": "Patients with any DLTs", "setting": "[1]; [4]", "result": "2 (100.0) n (%)"}, {"measurement": "DLT, Cardiac arrest", "setting": "[1]; [5]", "result": "1 (12.5) n (%)"}, {"measurement": "DLT, Colitis", "setting": "[1]; [5]", "result": "1 (12.5) n (%)"}, {"measurement": "DLT, Fatigue", "setting": "[1]; [5]", "result": "1 (12.5) n (%)"}, {"measurement": "DLT, Febrile neutropenia", "setting": "[1]; [5]", "result": "3 (37.5) n (%)"}, {"measurement": "DLT, Multiple organ dysfunction syndrome", "setting": "[1]; [5]", "result": "1 (12.5) n (%)"}, {"measurement": "DLT, Neutrophil count decreased", "setting": "[1]; [5]", "result": "0 n (%)"}, {"measurement": "DLT, Platelet count decreased", "setting": "[1]; [5]", "result": "0 n (%)"}, {"measurement": "DLT, Thrombocytopenia", "setting": "[1]; [5]", "result": "1 (12.5) n (%)"}, {"measurement": "Patients with any DLTs", "setting": "[1]; [5]", "result": "4 (50.0) n (%)"}, {"measurement": "Patients with DLTs (all treatment-related)", "setting": "[1]; part 1A, 42 patients evaluable for DLT", "result": 14.3, "unit": "%"}, {"measurement": "Recommended dose for expansion (RDE)", "setting": "[1]; single-agent and combination dosing groups", "result": 25, "unit": "mg twice daily"}]}
